Test results reported in patent publication US5672715A, “Herbicidal substituted 3-aryl-pyrazoles” (Monsanto Company, priority 1995, dated 1997).

Columns and labels:
Type in all cases: in vivo
[1] = system: Barnyardgrass; assay: pre-emergence herbicide test; settings: Echinochloa crus-galli, pre-emergence, 0.25 lb/A; read-out: % plant inhibition
Summary of the method: (§1)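 Herbicidal effect was assessed as percent inhibition about 14 days after sowing. A known amount of compound was added to the covering topsoil, and the pans were subirrigated in a greenhouse.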

[2] = system: Bedstraw Catchweed; assay: pre-emergence herbicide test; settings: Galium aparine, pre-emergence, 0.25 lb/A; read-out: % plant inhibition
Summary of the method: as §1

[3] = system: Birdseye Speedwell; assay: pre-emergence herbicide test; settings: pre-emergence, 0.25 lb/A; read-out: % plant inhibition
Summary of the method: as §1

[4] = system: Blackgrass; assay: pre-emergence herbicide test; settings: Alopecurus myosuroides, pre-emergence, 0.25 lb/A; read-out: % plant inhibition
Summary of the method: as §1

[5] = system: Cocklebur; assay: pre-emergence herbicide test; settings: Xanthium strumarium, pre-emergence, 0.25 lb/A; read-out: % plant inhibition
Summary of the method: as §1

[6] = system: Common Chickweed; assay: pre-emergence herbicide test; settings: pre-emergence, 0.25 lb/A; read-out: % plant inhibition
Summary of the method: as §1

[7] = system: Corn; assay: pre-emergence herbicide test; settings: Zea mays, pre-emergence, 0.25 lb/A; read-out: % plant inhibition
Summary of the method: as §1

[8] = system: Downy Brome; assay: pre-emergence herbicide test; settings: Bromus tectorum, pre-emergence, 0.25 lb/A; read-out: % plant inhibition
Summary of the method: as §1

[9] = system: Giant Foxtail; assay: pre-emergence herbicide test; settings: Setaria faberi, pre-emergence, 0.25 lb/A; read-out: % plant inhibition
Summary of the method: as §1

[10] = system: Green Foxtail; assay: pre-emergence herbicide test; settings: Setaria viridis, pre-emergence; 0.25 lb/A; read-out: % plant inhibition
Summary of the method: as §1

[11] = system: Morning Glory; assay: pre-emergence herbicide test; settings: Ipomoea, pre-emergence, 0.25 lb/A; read-out: % plant inhibition
Summary of the method: as §1

[12] = system: Rape; assay: pre-emergence herbicide test; settings: pre-emergence, 0.25 lb/A; read-out: % plant inhibition
Summary of the method: as §1

[13] = system: Seedling Johnsongrass; assay: pre-emergence herbicide test; settings: Sorghum halepense, pre-emergence, 0.25 lb/A; read-out: % plant inhibition
Summary of the method: as §1

[14] = system: Soybean; assay: pre-emergence herbicide test; settings: Glycine max, pre-emergence, 0.25 lb/A; read-out: % plant inhibition
Summary of the method: as §1

[15] = system: Velvetleaf; assay: pre-emergence herbicide test; settings: Abutilon theophrasti, pre-emergence, 0.25 lb/A; read-out: % plant inhibition
Summary of the method: as §1

[16] = system: Wheat; assay: pre-emergence herbicide test; settings: Triticum aestivum, pre-emergence, 0.25 lb/A; read-out: % plant inhibition
Summary of the method: as §1

[17] = system: Wild Oats; assay: pre-emergence herbicide test; settings: Avena fatua, pre-emergence, 0.25 lb/A; read-out: % plant inhibition
Summary of the method: as §1

[18] = system: Barnyardgrass; assay: post-emergence herbicide test; settings: Echinochloa crus-galli, post-emergence, 0.25 lb/A; read-out: % plant inhibition
Summary of the method: (§2)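 Each pan is moved to a spraying chamber when plants are two to three weeks old and sprayed by atomizer at 10 psig, delivering 1870 L/Ha containing about 0.4% by volume emulsifier. Greenhouse-grown from seed; percent inhibition scored.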

[19] = system: Bedstraw Catchweed; assay: post-emergence herbicide test; settings: Galium aparine, post-emergence, 0.25 lb/A; read-out: % plant inhibition
Summary of the method: as §2

[20] = system: Birdseye Speedwell; assay: post-emergence herbicide test; settings: post-emergence, 0.25 lb/A; read-out: % plant inhibition
Summary of the method: as §2

[21] = system: Blackgrass; assay: post-emergence herbicide test; settings: Alopecurus myosuroides, post-emergence, 0.25 lb/A; read-out: % plant inhibition
Summary of the method: as §2

[22] = system: Cocklebur; assay: post-emergence herbicide test; settings: Xanthium strumarium, post-emergence, 0.25 lb/A; read-out: % plant inhibition
Summary of the method: as §2

[23] = system: Common Chickweed; assay: post-emergence herbicide test; settings: post-emergence, 0.25 lb/A; read-out: % plant inhibition
Summary of the method: as §2

[24] = system: Corn; assay: post-emergence herbicide test; settings: Zea mays, post-emergence, 0.25 lb/A; read-out: % plant inhibition
Summary of the method: as §2

[25] = system: Downy Brome; assay: post-emergence herbicide test; settings: Bromus tectorum, post-emergence, 0.25 lb/A; read-out: % plant inhibition
Summary of the method: as §2

[26] = system: Giant Foxtail; assay: post-emergence herbicide test; settings: Setaria faberi, post-emergence, 0.25 lb/A; read-out: % plant inhibition
Summary of the method: as §2

[27] = system: Green Foxtail; assay: post-emergence herbicide test; settings: Setaria viridis, post-emergence, 0.25 lb/A; read-out: % plant inhibition
Summary of the method: as §2

[28] = system: Morning Glory; assay: post-emergence herbicide test; settings: Ipomoea, post-emergence, 0.25 lb/A; read-out: % plant inhibition
Summary of the method: as §2

[29] = system: Rape; assay: post-emergence herbicide test; settings: post-emergence, 0.25 lb/A; read-out: % plant inhibition
Summary of the method: as §2

[30] = system: Seedling Johnsongrass; assay: post-emergence herbicide test; settings: Sorghum halepense, post-emergence, 0.25 lb/A; read-out: % plant inhibition
Summary of the method: as §2

[31] = system: Soybean; assay: post-emergence herbicide test; settings: Glycine max, post-emergence, 0.25 lb/A; read-out: % plant inhibition
Summary of the method: as §2

[32] = system: Velvetleaf; assay: post-emergence herbicide test; settings: Abutilon theophrasti, post-emergence, 0.25 lb/A; read-out: % plant inhibition
Summary of the method: as §2

[33] = system: Wheat; assay: post-emergence herbicide test; settings: Triticum aestivum, post-emergence, 0.25 lb/A; read-out: % plant inhibition
Summary of the method: as §2

[34] = system: Wild Oats; assay: post-emergence herbicide test; settings: Avena fatua, post-emergence, 0.25 lb/A; read-out: % plant inhibition
Summary of the method: as §2

SMILES | inhibition at 280.212 g/ha [1] [%] | inhibition at 280.212 g/ha [2] [%] | inhibition at 280.212 g/ha [3] [%] | inhibition at 280.212 g/ha [4] [%] | inhibition at 280.212 g/ha [5] [%] | inhibition at 280.212 g/ha [6] [%] | inhibition at 280.212 g/ha [7] [%] | inhibition at 280.212 g/ha [8] [%] | inhibition at 280.212 g/ha [9] [%] | inhibition at 280.212 g/ha [10] [%] | inhibition at 280.212 g/ha [11] [%] | inhibition at 280.212 g/ha [12] [%] | inhibition at 280.212 g/ha [13] [%] | inhibition at 280.212 g/ha [14] [%] | inhibition at 280.212 g/ha [15] [%] | inhibition at 280.212 g/ha [16] [%] | inhibition at 280.212 g/ha [17] [%] | inhibition at 280.212 g/ha [18] [%] | inhibition at 280.212 g/ha [19] [%] | inhibition at 280.212 g/ha [20] [%] | further results
Cc1c(-c2cc(CSC(C)C)c(Cl)cc2F)nn(C)c1C(F)(F)F [Compound 29] | 80 | 70 | 70 | 40 | 15 | 90 | 30 | 10 | 95 | 95 | 65 | 15 | 100 | 20 | 70 | 0 | 15 | 90 | 100 | 100 | inhibition at 280.212 g/ha [21]: 70%; inhibition at 280.212 g/ha [22]: 90%; inhibition at 280.212 g/ha [23]: 95%; inhibition at 280.212 g/ha [24]: 20%; inhibition at 280.212 g/ha [25]: 70%; inhibition at 280.212 g/ha [26]: 65%; inhibition at 280.212 g/ha [27]: 95%; inhibition at 280.212 g/ha [28]: 90%; inhibition at 280.212 g/ha [29]: 100%; inhibition at 280.212 g/ha [30]: 90%; inhibition at 280.212 g/ha [31]: 90%; inhibition at 280.212 g/ha [32]: 99%; inhibition at 280.212 g/ha [33]: 12%; inhibition at 280.212 g/ha [34]: 75%
Cn1nc(-c2cc(C(=O)O)c(Cl)cc2F)c(C=O)c1C(F)(F)F [Compound 3, 2-Chloro-4-fluoro-5-[4-formyl-1-methyl-5-(trifluoromethyl)-1H-pyrazol-3-yl]benzoic acid] | 15 | 5 | 0 | 5 | 5 | 0 | 0 | 0 | 5 | 30 | 60 | 5 | 25 | 20 | 25 | 0 | 5 | 0 | 15 | 75 | inhibition at 280.212 g/ha [21]: 0%; inhibition at 280.212 g/ha [22]: 65%; inhibition at 280.212 g/ha [23]: 25%; inhibition at 280.212 g/ha [24]: 2%; inhibition at 280.212 g/ha [25]: 0%; inhibition at 280.212 g/ha [26]: 0%; inhibition at 280.212 g/ha [27]: 10%; inhibition at 280.212 g/ha [28]: 25%; inhibition at 280.212 g/ha [29]: 10%; inhibition at 280.212 g/ha [30]: 0%; inhibition at 280.212 g/ha [31]: 15%; inhibition at 280.212 g/ha [32]: 85%; inhibition at 280.212 g/ha [33]: 8%; inhibition at 280.212 g/ha [34]: 5%
CSCc1cc(-c2nn(C)c(C(F)(F)F)c2C)c(F)cc1Cl [Compound 27] | 60 | 65 | 35 | 35 | 20 | 75 | 5 | 5 | 50 | 100 | 75 | 10 | 90 | 3 | 90 | 0 | 5 | 70 | 90 | 100 | inhibition at 280.212 g/ha [21]: 30%; inhibition at 280.212 g/ha [22]: 80%; inhibition at 280.212 g/ha [23]: 65%; inhibition at 280.212 g/ha [24]: 65%; inhibition at 280.212 g/ha [25]: 40%; inhibition at 280.212 g/ha [26]: 35%; inhibition at 280.212 g/ha [27]: 75%; inhibition at 280.212 g/ha [28]: 95%; inhibition at 280.212 g/ha [29]: 50%; inhibition at 280.212 g/ha [30]: 90%; inhibition at 280.212 g/ha [31]: 80%; inhibition at 280.212 g/ha [32]: 98%; inhibition at 280.212 g/ha [33]: 13%; inhibition at 280.212 g/ha [34]: 25%
CC(=O)CCCOC(=O)c1cc(-c2nn(C)c(C(F)(F)F)c2C)c(F)cc1Cl [Compound 53] | 85 | 50 | 70 | 15 | 15 | 40 | 5 | 15 | 9 | 100 | 80 | 5 | 75 | 0 | 85 | 0 | 5 | 70 | 95 | 95 | inhibition at 280.212 g/ha [21]: 25%; inhibition at 280.212 g/ha [22]: 100%; inhibition at 280.212 g/ha [23]: 90%; inhibition at 280.212 g/ha [24]: 7%; inhibition at 280.212 g/ha [25]: 45%; inhibition at 280.212 g/ha [26]: 75%; inhibition at 280.212 g/ha [27]: 80%; inhibition at 280.212 g/ha [28]: 99%; inhibition at 280.212 g/ha [29]: 98%; inhibition at 280.212 g/ha [30]: 75%; inhibition at 280.212 g/ha [31]: 75%; inhibition at 280.212 g/ha [32]: 100%; inhibition at 280.212 g/ha [33]: 16%; inhibition at 280.212 g/ha [34]: 40%
Cc1c(-c2cc(C(=O)NC(C)C)c(Cl)cc2F)nn(C)c1C(F)(F)F [Compound 22] | 95 | 100 | 100 | 85 | 25 | 100 | 5 | 40 | 98 | 100 | 5 | 90 | 97 | 25 | 40 | 6 | 85 | 30 | 45 | 40 | inhibition at 280.212 g/ha [21]: 5%; inhibition at 280.212 g/ha [22]: 65%; inhibition at 280.212 g/ha [23]: 40%; inhibition at 280.212 g/ha [24]: 5%; inhibition at 280.212 g/ha [25]: 15%; inhibition at 280.212 g/ha [26]: 75%; inhibition at 280.212 g/ha [27]: 20%; inhibition at 280.212 g/ha [28]: 40%; inhibition at 280.212 g/ha [29]: 10%; inhibition at 280.212 g/ha [30]: 60%; inhibition at 280.212 g/ha [31]: 50%; inhibition at 280.212 g/ha [32]: 90%; inhibition at 280.212 g/ha [33]: 0%; inhibition at 280.212 g/ha [34]: 10%
